# Source: patent US20210032344A1, “METHODS OF TREATING TUMOR” (Bristol-Myers Squibb Company, priority 2018, published 2021)
# Legend:
# [1] = monotherapy, every two weeks; MTD not reached; cited from earlier work
# [2] = system: stage IV or recurrent NSCLC; assay: Phase 3 trial, part 1: first-line nivolumab-based regimens vs chemotherapy; efficacy (PFS, ORR, duration of response); type: in vivo, human
# From the text: This trial is an open-label, multi-part phase 3 study of first-line nivolumab and nivolumab-based combinations in biomarker-selected NSCLC populations. […] The study continues for the co-primary endpoint of overall survival in PD-L1-selected patients.
# Patients had chemotherapy-naive, stage IV or recurrent NSCLC.
# Adult patients with PD-L1-histologically confirmed squamous or nonsquamous stage IV/recurrent NSCLC and Eastern Cooperative Oncology Group (ECOG) performance status (Oken M. M., et al. Am J Clin Oncol 5:649-55 (1982)) of 0 or 1 who had received no prior systemic anticancer therapy as primary therapy for advanced or metastatic disease were eligible for the study. All patients underwent imaging to screen for brain metastases. Patients with known EGFR mutations or ALK translocations sensitive to targeted therapy, an autoimmune disease, or untreated central nervous system metastases were excluded.
# All treatments continued until disease progression, unacceptable toxicity, or completion per protocol (up to 2 years for immunotherapy). Crossover between treatment arms within the study was not permitted.
# Part 1 of this study had two co-primary endpoints.
# [3] = system: patients with stage IV or recurrent NSCLC; conditions: in vivo
# From the text: Overall response rates (ORR), duration of response, and safety were exploratory endpoints. Adverse events were graded according to the National Cancer Institute Common Terminology Criteria for Adverse Events, version 4.0.
substance,measurement,setting,value
nivolumab,maximum tolerated dose (MTD),[1],> 10 mg/kg
same,median PFS,[2]; TMB ≥10 mutations/Mb and ≥1% PD-L1 expression,4.2 months
same,median PFS,[2]; TMB ≥13 mutations/Mb and ≥1% PD-L1 expression,4.2 months
same,"PFS hazard ratio (HR), nivolumab vs. chemotherapy",[2]; in vivo,0.95
same,safety / tolerability (in words),[3],well tolerated
